In general, Ki refers to the dissociation constant of the complex between target and ligand, obtained from inhibition or displacement. Low readings indicate tighter binding, high ones weaker binding. In general, EC50 refers to the concentration giving half of the maximal effect. Low values mean a more potent agent, high ones a less potent agent.

This note sets out measurements from US9540357B1, “15-aryl prostaglandins as EP4 agonists, and methods of use thereof” (Allergan, Inc., priority 2014, dated 2017).

Test [1] addresses T1, EP4 (Homo sapiens (Human), UniProt P35408). Description: Competition binding, EP4.
Test [2] concerns the target T2, EP2 (Homo sapiens (Human), UniProt P43116). Description: Competition binding ([3H]PGE2), EP2. The settings on record: HEK 293 cells stably expressing human EP2 receptors, [3H]PGE2 10 nM. The procedure:
Competition binding experiments were performed in a medium containing Hank's balanced salt solution, HEPES 20 mM, pH 7.3, membranes (˜60 μg protein) or 2×10^5 cells from HEK 293 cells stably expressing human EP2 receptors, [^3H]PGE2 (10 nM) and various concentrations of test compounds in a total volume of 300 μl. Reaction mixtures were incubated at 23° C. for 60 min, and were filtered over Whatman GF/B filters under vacuum. Filters were washed three times with 5 ml ice-cold buffer containing 50 mM Tris/HCl (pH 7.3). Non-specific binding was estimated in the presence of excess unlabeled PGE2 (10 μM). Binding data fitted to the binding model for a single class of binding sites, using nonlinear regression analysis. IC50 values thus obtained were converted to Ki using the equation of Ki=(IC50/(1+[L]/KD) where [L] represents PGE2 concentration (10 nM) and KD the dissociation constant for [^3H]PGE2 at human EP2 receptors (40 nM).

Test [3] has as its target T2, EP2. Description: cAMP assay, EP2. The format is cell-based. The note with it: HEK-EBNA cells expressing EP2. On the technique in general: cAMP levels reflect the balance of adenylyl cyclase and phosphodiesterase activity.
Test [4] deals with T1, EP4. Nature of the test: cAMP assay, EP4. The format is cell-based. The note with it: HEK-EBNA cells expressing EP4. The procedure: A 384-well drug plate was prepared to contain 6 test compounds, PGE2 and cAMP in 16 serial dilutions in triplicate, using a Biomek station. HEK-EBNA cells expressing a target PG receptor subtype (EP2 or EP4) were suspended in a stimulation buffer (HBSS, 0.1% BSA, 0.5 mM IBMX and 5 mM HEPES, pH 7.4) in a density of 10^4 cells/5 microliters. The reaction was initiated by mixing 5 microliters drug dilutions with 5 microliters of HEK-EBNA cells in a well, carried out for 30 min at room temperature, and followed by the addition of 5 microliters anti-cAMP acceptor beads in the control buffer with Tween-20 (25 mM NaCl, 0.03% Tween-20, 5 mM HEPES, pH 7.4). After 30 min in the dark at room temperature, the mixtures were incubated with 15 microliters biotinylated-cAMP/streptavidin donor beads in Lysis/Detection buffer (0.1% BSA, 0.3% Tween-20 and 5 mM HEPES, pH 7.4) for 45 min at room temperature. Fluorescence changes were read using a Fusion-alpha microplate reader.

For test [5], the target named is hEP3A (Homo sapiens (Human), UniProt P43115). Description: FLIPR calcium signal, hEP3A. The note with it: HEK-293(EBNA) cells expressing hEP3A/Gqi5. The format is cell-based. The protocol:
(§1) HEK-293(EBNA) cells, stably expressing one type or subtype of recombinant human prostaglandin receptors (prostaglandin receptors expressed: hDP/Gqs5; hEP1; hEP2/Gqs5: hEP3A/Gqi5; hEP4/Gqs5; hFP; hIP; hTP), were cultured in 100 mm culture dishes in high-glucose DMEM medium containing 10% fetal bovine serum, 2 mM 1-glutamine, 250 μg/ml geneticin (G418) and 200 microgram/mL hygromycin B as selection markers, and 100 units/ml penicillin G, 100 microgram/mL streptomycin and 0.25 microgram/mL amphotericin B.
(§2) Cells were seeded at a density of 5×10^4 cells per well in Biocoat® Poly-D-lysine-coated black-wall, clear-bottom 96-well plates (Becton-Dickinson) and allowed to attach overnight in an incubator at 37° C. Cells were then washed two times with HBSS-HEPES buffer (Hanks Balanced Salt Solution without bicarbonate and phenol red, 20 mM HEPES, pH 7.4) using a Denley Cellwash plate washer (Labsystems). […]
(§3) Cells were excited with an Argon laser at 488 nm, and emission was measured through a 510-570 nm bandwidth emission filter (FLIPR™, Molecular Devices, Sunnyvale, Calif.). […] The peak increase in fluorescence intensity was recorded for each well. […] The peak fluorescence change in each drug-containing well was then expressed relative to the controls. […]

In test [6] the target is hEP1 (Homo sapiens (Human), UniProt P34995). Nature of the test: FLIPR calcium signal, hEP1. The format is cell-based. The note with it: HEK-293(EBNA) cells expressing hEP1. The procedure:
as §1, §2, §3

Test [7] addresses hFP (Homo sapiens (Human), UniProt P43088). Nature of the test: FLIPR calcium signal, hFP. The test is classed as cell-based. The note with it: HEK-293(EBNA) cells expressing hFP. The procedure:
as §1, §2, §3

Test [8] deals with hTP (Homo sapiens (Human), UniProt P21731). Description: FLIPR calcium signal, hTP. The test is classed as cell-based. The note with it: HEK-293(EBNA) cells expressing hTP. The protocol:
as §1, §2, §3

In test [9] the target is hDP (Homo sapiens (Human), UniProt Q13258). Description: FLIPR calcium signal, hDP. The format is cell-based. The settings on record: HEK-293(EBNA) cells expressing hDP/Gqs5. The protocol: as §1, §2, §3
Sequence of hDP (Q13258 whole entry): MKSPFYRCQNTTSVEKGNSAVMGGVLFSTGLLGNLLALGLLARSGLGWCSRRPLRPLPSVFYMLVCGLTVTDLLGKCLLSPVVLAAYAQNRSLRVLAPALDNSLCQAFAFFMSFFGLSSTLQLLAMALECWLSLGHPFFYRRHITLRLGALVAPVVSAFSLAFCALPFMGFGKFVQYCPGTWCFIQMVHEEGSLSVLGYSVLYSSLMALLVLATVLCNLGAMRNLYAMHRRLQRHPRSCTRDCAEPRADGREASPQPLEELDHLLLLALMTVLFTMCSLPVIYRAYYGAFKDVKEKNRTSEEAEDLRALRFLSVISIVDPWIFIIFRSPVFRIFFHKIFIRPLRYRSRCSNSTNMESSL

T1 sequence (P35408 whole entry): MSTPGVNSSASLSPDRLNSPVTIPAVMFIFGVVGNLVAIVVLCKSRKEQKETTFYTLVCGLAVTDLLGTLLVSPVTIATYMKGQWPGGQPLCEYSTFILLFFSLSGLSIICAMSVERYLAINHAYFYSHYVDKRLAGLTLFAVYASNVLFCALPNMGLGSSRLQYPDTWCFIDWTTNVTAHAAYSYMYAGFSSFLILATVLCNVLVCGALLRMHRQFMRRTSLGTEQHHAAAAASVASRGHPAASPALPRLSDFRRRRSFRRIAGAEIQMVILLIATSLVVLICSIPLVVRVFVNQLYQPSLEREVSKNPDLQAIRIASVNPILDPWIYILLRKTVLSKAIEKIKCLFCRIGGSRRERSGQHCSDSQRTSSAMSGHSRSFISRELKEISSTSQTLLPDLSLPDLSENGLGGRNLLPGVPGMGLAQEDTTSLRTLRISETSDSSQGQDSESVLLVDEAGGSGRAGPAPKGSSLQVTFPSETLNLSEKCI
T2 sequence (P43116 whole entry): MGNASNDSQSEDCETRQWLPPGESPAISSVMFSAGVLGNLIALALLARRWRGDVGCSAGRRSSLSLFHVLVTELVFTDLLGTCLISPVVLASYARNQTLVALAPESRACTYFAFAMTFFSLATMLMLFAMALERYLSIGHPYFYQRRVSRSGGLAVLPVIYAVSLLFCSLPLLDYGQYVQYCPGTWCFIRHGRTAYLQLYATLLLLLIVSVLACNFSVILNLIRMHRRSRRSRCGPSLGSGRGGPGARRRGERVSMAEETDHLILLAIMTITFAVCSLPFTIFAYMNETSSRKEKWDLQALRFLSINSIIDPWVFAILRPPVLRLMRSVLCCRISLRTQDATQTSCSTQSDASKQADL
Sequence of hTP (P21731 whole entry): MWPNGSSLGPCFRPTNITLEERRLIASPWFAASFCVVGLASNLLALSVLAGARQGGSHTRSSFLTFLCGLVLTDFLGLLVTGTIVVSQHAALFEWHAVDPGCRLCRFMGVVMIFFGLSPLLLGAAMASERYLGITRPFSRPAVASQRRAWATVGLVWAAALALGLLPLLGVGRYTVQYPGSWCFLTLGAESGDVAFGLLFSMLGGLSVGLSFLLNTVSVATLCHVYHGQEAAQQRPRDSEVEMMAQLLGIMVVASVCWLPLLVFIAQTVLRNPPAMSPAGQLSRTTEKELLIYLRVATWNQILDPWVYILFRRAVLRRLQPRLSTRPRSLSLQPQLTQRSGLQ
Sequence of hEP1 (P34995 whole entry): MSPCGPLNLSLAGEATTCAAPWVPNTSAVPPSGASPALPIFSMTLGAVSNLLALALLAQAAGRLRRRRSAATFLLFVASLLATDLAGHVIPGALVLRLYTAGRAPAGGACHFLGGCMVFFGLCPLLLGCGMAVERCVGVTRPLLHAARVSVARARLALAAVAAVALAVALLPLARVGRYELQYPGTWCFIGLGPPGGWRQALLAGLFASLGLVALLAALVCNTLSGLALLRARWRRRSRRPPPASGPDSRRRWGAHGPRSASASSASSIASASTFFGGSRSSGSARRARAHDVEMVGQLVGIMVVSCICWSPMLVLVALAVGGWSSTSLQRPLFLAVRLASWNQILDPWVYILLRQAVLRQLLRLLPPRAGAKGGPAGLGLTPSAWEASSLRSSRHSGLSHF
Sequence of hFP (P43088 whole entry): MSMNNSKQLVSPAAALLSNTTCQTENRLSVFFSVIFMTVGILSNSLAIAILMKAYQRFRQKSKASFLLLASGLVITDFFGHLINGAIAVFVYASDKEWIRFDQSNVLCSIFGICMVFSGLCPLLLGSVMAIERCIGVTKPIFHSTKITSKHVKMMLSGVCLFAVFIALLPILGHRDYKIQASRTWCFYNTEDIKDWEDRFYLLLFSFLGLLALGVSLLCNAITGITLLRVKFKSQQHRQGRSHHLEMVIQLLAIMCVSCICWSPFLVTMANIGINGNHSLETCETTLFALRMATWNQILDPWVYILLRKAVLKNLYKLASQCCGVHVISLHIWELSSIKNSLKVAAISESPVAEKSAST
Sequence of hEP3A (P43115 whole entry): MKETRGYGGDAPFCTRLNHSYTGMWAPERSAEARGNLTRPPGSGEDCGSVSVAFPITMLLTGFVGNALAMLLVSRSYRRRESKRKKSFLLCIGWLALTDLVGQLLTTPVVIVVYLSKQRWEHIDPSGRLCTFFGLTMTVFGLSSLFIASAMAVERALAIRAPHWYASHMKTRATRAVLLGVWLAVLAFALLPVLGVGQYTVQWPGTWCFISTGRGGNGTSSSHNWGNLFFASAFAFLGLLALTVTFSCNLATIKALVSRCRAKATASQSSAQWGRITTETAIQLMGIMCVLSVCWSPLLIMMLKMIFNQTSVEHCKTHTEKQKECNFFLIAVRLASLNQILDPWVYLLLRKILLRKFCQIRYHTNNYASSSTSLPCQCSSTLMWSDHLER

`O=C(O)c1ccc(CCCN2C(=O)CC[C@@H]2/C=C/C(O)c2cccc(Br)c2)cc1` (single isomer, unassigned) [Example 2]: the figures for the Ki in test [1] and in test [2] were 1210 nM and 7490 nM, respectively. Also, the EC50 in [3] stood at 149 nM; in [4], 194 nM.
On to `Cc1cc(O)ccc1-c1cccc(C(O)/C=C/[C@H]2CCC(=O)N2CCCc2ccc(C(=O)O)cc2)c1` (single isomer, unassigned) [Example 9], for which the “EC50 against hEP3A” value in test [5] was “not active”. In test [1], this molecule came in with a Ki of 3320 nM. Also, in [6], the “EC50 against hEP1” value was “not active”. Besides, in test [2], the EP2 Ki is greater than 10000 nM. Further, in [4], a half-maximal effect (EC50) was put at 326 nM. For the same molecule, the “EC50 against hFP” value in test [7] is given as “not active”. Moreover, in [8], the “EC50 against hTP” value is given as “not active”. The “EC50 against hDP” value in test [9] was “not active”.
`Cc1cc(O)ccc1-c1cccc(C(O)/C=C/[C@H]2CCC(=O)N2CCCc2ccc(C(=O)O)cc2)c1` (single isomer, unassigned) [Example 10]: in test [5], the “EC50 against hEP3A” value is on record as “not active”. The same molecule had a Ki in [1] of 25 nM. For the same molecule, the “EC50 against hEP1” value in test [6] is listed as “not active”. This molecule also came in with an EP2 Ki in test [2] greater than 10000 nM. Moreover, in [4], the EC50 was 3 nM. Besides, the “EC50 against hFP” value in test [7] is given as “not active”. Further, the “EC50 against hTP” value in [8] is on record as “not active”. For the same molecule, the “EC50 against hDP” value in test [9] was “not active”.
